This is an account of results in patent US11345666B2, “Phenyl and pyridinyl substituted imidazoles as modulators of RORγT” (Janssen Pharmaceutica NV, priority 2018, dated 2022).

The target in assay [1] is human RORγt ligand binding domain (RORγt LBD) (Homo sapiens (Human), UniProt P51449). As to the kind of experiment: RORγt ThermoFluor assay. Summed up:
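Thermal shift of His-tagged human RORγt LBD (0.065 mg/mL) with 60 μM 1,8-ANS in 100 mM Hepes pH 7.0, 10 mM NaCl, 2.5 mM GSH, 0.002% Tween-20, heated at 1° C./min. Compounds in 1:2 series from a 10 mM DMSO stock; KD estimated from ΔTm using protein unfolding thermodynamics.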

The test system of assay [2] is IL-17 production by CD4 T cells. Briefly: Human Th17 assay. Type of assay: cell-based. The conditions noted are these: 72 h, IL-17 in supernatant after 3 days. An excerpt:
The human Th17 assay tests the effect of RORγt modulatory compounds on IL-17 production by CD4 T cells under conditions which favor Th17 differentiation. Total CD4^+ T cells were isolated from the peripheral blood mononuclear cells (PBMC) of healthy donors using a CD4^+ T cell isolation kit II, following the manufacturer's instructions (Miltenyi Biotec). Cells were resuspended in a medium of RPMI-1640 supplemented with 10% fetal bovine serum, penicillin, streptomycin, glutamate, and β-mercaptoethanol and were added to 96-well plates at 1.5×10^5 per 100 μL per well. 50 μL of compound at titrated concentrations in DMSO were added into each well at final DMSO concentration at 0.2%. Cells were incubated for 1 hour, then 50 μL of Th17 cell differentiation medium was added to each well. The final concentrations of antibodies and cytokines (R&D Systems) in differentiation medium were: 3×10^6/mL anti-CD3/CD28 beads (prepared using human T cell activation/expansion kit, Miltenyi Biotec), 10 μg/mL anti-IL4, 10 μg/mL anti-IFNγ, 10 ng/mL IL1β, 10 ng/mL IL23, 50 ng/mL IL6, 3 ng/mL TGFβ and 20 U/mL IL2. Cells were cultured at 37° C. and 5% CO2 for 3 days. Supernatants were collected and the accumulated IL-17 in culture was measured by using MULTI-SPOT® Cytokine Plate following manufacture's instruction (Meso Scale Discovery). The plate was read using Sector Imager 6000, and IL-17 concentration was extrapolated from the standard curve. The IC50s were determined by GraphPad.

Chain of human RORγt ligand binding domain (RORγt LBD) (P51449 other isoform, or with tags, fused parts or gaps): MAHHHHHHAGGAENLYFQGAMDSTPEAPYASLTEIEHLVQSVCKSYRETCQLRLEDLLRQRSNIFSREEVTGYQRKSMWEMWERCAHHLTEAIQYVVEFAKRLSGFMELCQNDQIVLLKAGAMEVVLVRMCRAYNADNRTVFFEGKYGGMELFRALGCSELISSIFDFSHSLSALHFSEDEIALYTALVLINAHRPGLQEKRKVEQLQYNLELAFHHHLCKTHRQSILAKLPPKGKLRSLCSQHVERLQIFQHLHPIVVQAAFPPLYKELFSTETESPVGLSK

Consider `CCc1nc(C(=O)NC[C@H]2CC[C@H](S(C)(=O)=O)CC2)c(C)n1-c1ccc(CC(C)C(F)(F)F)cc1OC` (single isomer, unassigned) [Example 7], for which the Kd in assay [1] stood at 1 nM. Further, 7 nM corresponded to half-maximal inhibition in assay [2] (IC50).

On to `CCc1nc(C(=O)NC[C@]2(O)CC[C@@H](S(C)(=O)=O)CC2)c(Cl)n1-c1c(F)cc(CC(C)C)cc1F` [Example 83, 5-Chloro-1-(2,6-difluoro-4-isobutylphenyl)-2-ethyl-N-(((1s,4s)-1-hydroxy-4-(methylsulfonyl)cyclohexyl)methyl)-1H-imidazole-4-carboxamide], for which the Kd in assay [1] came to 2.6 nM. This molecule registered an IC50 in assay [2] greater than 6000 nM.

In assay [1], `CCc1nc(C(=O)NC[C@H]2CC[C@H](S(C)(=O)=O)CC2)c(C#N)n1-c1ccc(CC(C)(C)C(F)(F)F)cc1OC(F)F` [Example 36, 5-Cyano-1-(2-(difluoromethoxy)-4-(3,3,3-trifluoro-2,2-dimethylpropyl)phenyl)-2-ethyl-N-(((1r,4r)-4-(methylsulfonyl)cyclohexyl)methyl)-1H-imidazole-4-carboxamide] gave a Kd of 1.6 nM. The same molecule showed an IC50 in assay [2] of 8 nM.

As for `CCc1nc(C(=O)NC[C@H]2CC[C@H](S(C)(=O)=O)CC2)c(F)n1-c1ccc(N[C@H](C)C(F)(F)F)cc1OC` [Example 12, 2-Ethyl-5-fluoro-1-(2-methoxy-4-(((R)-1,1,1-trifluoropropan-2-yl)amino)phenyl)-N-(((1r,4R)-4-(methylsulfonyl)cyclohexyl)methyl)-1H-imidazole-4-carboxamide], the Kd in assay [1] was 12 nM. In addition, the IC50 in assay [2] stood at 220 nM.

Regarding `CCc1nc(C(=O)NC[C@]2(O)CC[C@@H](S(C)(=O)=O)CC2)c(C#N)n1-c1ccc(CC(C)(C)C(F)(F)F)cc1OC(F)(F)F` [Example 111, 5-Cyano-2-ethyl-N-(((1s,4s)-1-hydroxy-4-(methylsulfonyl)cyclohexyl)methyl)-1-(4-(3,3,3-trifluoro-2,2-dimethylpropyl)-2-(trifluoromethoxy)phenyl)-1H-imidazole-4-carboxamide], the Kd in assay [1] is 24 nM. The same molecule gave a half-maximal inhibitory concentration (IC50) in assay [2] of 69 nM.

Regarding `CCc1nc(C(=O)NC[C@H]2CC[C@H](S(C)(=O)=O)CC2)c(Cl)n1-c1ncc(CC(C)(C)C(F)(F)F)cc1OC(F)F` [Example 2, 5-Chloro-1-(3-(difluoromethoxy)-5-(3,3,3-trifluoro-2,2-dimethylpropyl)pyridin-2-yl)-2-ethyl-N-((4-(methylsulfonyl)cyclohexyl)methyl)-1H-imidazole-4-carboxamide], the Kd in assay [1] was 2.4 nM. The same molecule gave an IC50 in assay [2] of 85 nM.

`CCc1nc(C(=O)NC[C@H]2CC[C@H](S(C)(=O)=O)CC2)c(Cl)n1-c1ccc(N[C@H](C)C(F)(F)F)cc1OC` [Example 3, 5-Chloro-2-ethyl-1-(2-methoxy-4-(((R)-1,1,1-trifluoropropan-2-yl)amino)phenyl)-N-(((1r,4R)-4-(methylsulfonyl)cyclohexyl)methyl)-1H-imidazole-4-carboxamide] displayed a Kd in assay [1] of 3.5 nM. Also, in assay [2], the IC50 worked out at 31 nM.

Molecule `CCc1nc(C(=O)NC[C@H]2CC[C@H](S(C)(=O)=O)CC2)c(Cl)n1-c1ccc(CCC(F)(F)F)cc1F` [Example 22, 5-Chloro-2-ethyl-1-(2-fluoro-4-(3,3,3-trifluoropropyl)phenyl)-N-(((1r,4r)-4-(methylsulfonyl)cyclohexyl)methyl)-1H-imidazole-4-carboxamide] had a Kd in assay [1] of 20 nM. Further, the IC50 in assay [2] amounted to 42 nM.

In assay [1], `CCc1nc(C(=O)NC[C@]2(O)CC[C@@H](S(C)(=O)=O)CC2)c(C)n1-c1ccc(CC(C(F)(F)F)C(F)(F)F)cc1F` [Example 109, 2-Ethyl-1-(2-fluoro-4-(3,3,3-trifluoro-2-(trifluoromethyl)propyl)phenyl)-N-(((1s,4s)-1-hydroxy-4-(methylsulfonyl)cyclohexyl)methyl)-5-methyl-1H-imidazole-4-carboxamide] came in with a Kd of 6.5 nM. Moreover, the midpoint of inhibition in assay [2], the IC50, lay at 79 nM.

`CCc1nc(C(=O)NC[C@]2(O)CC[C@@H](S(C)(=O)=O)CC2)c(Cl)n1-c1ccc(CC(C(F)(F)F)C(F)(F)F)cc1F` [Example 100, 5-Chloro-2-ethyl-1-(2-fluoro-4-(3,3,3-trifluoro-2-(trifluoromethyl)propyl)phenyl)-N-(((1s,4s)-1-hydroxy-4-(methylsulfonyl)cyclohexyl)methyl)-1H-imidazole-4-carboxamide]: the Kd in assay [1] was 2.1 nM. Besides, the IC50 in assay [2] was determined as 58 nM.

Regarding `[2H]C([2H])([2H])Oc1cc(CC(C)(C)C(F)(F)F)ccc1-n1c(CC)nc(C(=O)NC[C@H]2CC[C@H](S(C)(=O)=O)CC2)c1C#N` [Example 27, 5-Cyano-2-ethyl-1-(2-(methoxy-d3)-4-(3,3,3-trifluoro-2,2-dimethylpropyl)phenyl)-N-(((1r,4r)-4-(methylsulfonyl)cyclohexyl)methyl)-1H-imidazole-4-carboxamide], the affinity in assay [1], expressed as Kd, was 0.76 nM. In assay [2], the IC50 was 13 nM.

For `CCc1nc(C(=O)NC[C@H]2CC[C@H](S(C)(=O)=O)CC2)c(Cl)n1-c1ccc(CC(C)C(F)(F)F)cc1OC` (single isomer, unassigned) [Example 6, 5-Chloro-2-ethyl-1-((1S*)-2-methoxy-4-(3,3,3-trifluoro-2-methylpropyl)phenyl)-N-(((1r,4S)-4-(methylsulfonyl)cyclohexyl)methyl)-1H-imidazole-4-carboxamide], the dissociation constant Kd in assay [1] is 0.17 nM. Besides, the IC50 in assay [2] was found to be 2 nM.

A word on the Kd: it is the equilibrium constant for the complex coming apart. Low values mean a tighter complex, high ones a looser complex. One may read the IC50 as the point on the concentration scale where inhibition reaches its midpoint. Higher therefore signals weaker potency.
